In patent US20030157146A1, “Stimulation of the immune system with polydextrose” (priority 2002, published 2003):

Columns and labels:
[1] = system: human fecal samples; experiment: 24 h batch fermentation with human fecal samples: production of SCFA; format: cell-based; conditions: 1% of each substance, 37° C., pH 6.9, anaerobic
Method: The test was based on a 24 h fermentation experiment performed with human fecal samples. Fecal samples were incubated in 24-hour batch cultures at 37° C. at pH 6.9 under anaerobic conditions containing a buffer medium (mineral salt, trace elements, vitamines). The medium was supplemented with 10% extract of caecal digesta from pig. Polydextrose, polyols and their combinations were added at the level of 1% each into the test cultures.

[2] = system: biogenic amines; experiment: biogenic amines from caecal digesta of rats (HPLC, dansyl derivatives); format: in vivo, Wistar rats; conditions: rat caecal digesta, Example 3
Method: Four week old male Wistar rats, divided into a control group and three test groups, consisting of 12 rats in each group, were held at a controlled temperature (27+2° C.) and 12:12 hrs light cycle. The animals had free access to food and water. The animals were weighed once a week and their weight gain was calculated. The control group was fed four weeks with a control (basal) diet and the test group was fed four weeks with the PDX-Polyol-diet, which consisted the control (basal) diet supplemented by an immunostimulating amount of polydextrose, and polyol as described in more detail below.
The control diet was the same diet as defined in Example 1. and the PDX-Polyol-diet was the same as defined in Example 2.
The digesta samples from caecum and colon were divided into pools (3 animals per pool) for the analysis of biogenic amines. The samples were stored in −20° C. until analysed. PH was measured from the caecum in situ.
Biogenic amines were determined from caecal digesta samples. […] The derivatives were separated on a C18 reversed phase column using mixture of ammonium acetate and acetonitrile as eluent, and detected with fluorescence detector.
(§1) The in vivo test of Example 2 and the in vitro fermentation of Example 3 were repeated and the level of tyramine was measured.

[3] = laxative effect in the test animals; set-up: species or system Wistar rats; conditions: in vivo
Method: Four week old male Wistar rats, divided into a control group and three test groups, consisting of 12 rats in each group, were held at a controlled temperature (27±2° C.) and 12:12 hrs light cycle. The animals had free access to food and water. The animals were weighed once a week and their weight gain was calculated. The control group was fed four weeks with a control (basal) diet and the test group was fed four weeks with the PDX-Polyol-diet, which consisted the control (basal) diet supplemented by an immunostimulating amount of polydextrose, and polyol as described in more detail below.
as §1

| Molecule | 2-metbutyric acid, production of SCFA (%) after 24 h fermentation [1] [%] | Acetic acid, production of SCFA (%) after 24 h fermentation [1] [%] | Butyric acid, production of SCFA (%) after 24 h fermentation [1] [%] | Isobutyric acid, production of SCFA (%) after 24 h fermentation [1] [%] | Isovaleric acid, production of SCFA (%) after 24 h fermentation [1] [%] | Propionic acid, production of SCFA (%) after 24 h fermentation [1] [%] | Total SCFA after 24 h fermentation [1] [mmol/L] | Valeric acid, production of SCFA (%) after 24 h fermentation [1] [%] | amount of tyramine compared to a control diet [2] | laxative effect [3] |
| --- | --- | --- | --- | --- | --- | --- | --- | --- | --- | --- |
| OC[C@@H](O)[C@@H](O[C@H]1O[C@H](CO)[C@@H](O)[C@H](O)[C@H]1O)[C@H](O)[C@@H](O)CO [Maltitol, maltitol] | 0.2 | 57.9 | 21.3 | 0.4 | 0.2 | 12.1 | 157.0 | 1.2 |  |  |
| isomalt | 0.2 | 64.0 |  | 0.4 | 0.2 | 12.8 | 158.6 | 1.2 |  |  |
| OC[C@@H](O)[C@H](O)[C@@H](O)CO [Xylitol, xylitol] | 0.3 | 45.8 | 27.9 | 0.6 | 0.3 | 12.6 | 191.6 | 1.9 |  |  |
| OC[C@@H](O)[C@@H](O[C@@H]1O[C@H](CO)[C@H](O)[C@H](O)[C@H]1O)[C@H](O)[C@@H](O)CO [Lactitol, lactitol] | 0.2 | 66.2 | 31.1 | 0.4 | 0.2 | 9.3 | 153.6 | 0.9 | reduced | laxative effect |
| OC[C@@H](O)[C@@H](O)[C@H](O)[C@@H](O)CO [Sorbitol, sorbitol] | 0.2 | 55.2 | 38.6 | 0.5 | 0.3 | 11.4 | 122.4 | 1.4 |  |  |
